Source: patent publication US11091434B2, “Type III deiodinase inhibitors and uses thereof” (HADASIT MEDICAL RESEARCH SERVICES AND DEVELOPMENT LTD., priority 2014, dated 2021)
Entries after “also recorded” stand apart in the source; their conditions may differ.

Columns and labels:
[1] = Deiodination assay: deiodination of T4 by DIO3 mimic compound A; type: biochemical; conditions: for inhibition of the deiodinase activity (deiodination of T4) of DIO3 mimic compound A: 100 mM phosphate buffer pH 7.5, 10 mM DTT, 37° C., rT3 formation by HPLC; for IC50 for inhibiting the DIO3 mimic: mimic used in micromolar concentrations, FIG. 5
Description: The deiodination of thyroxine by compound A (a DIO3 mimetic; FIGS. 2 and 3) in the presence of various thiourea derivatives was studied. When the commonly used antithyroid drugs such as thiourea derivatives (e.g., 6-n-propyl-2-thiouracil (PTU), 6-methyl-2-thiouracil (MTU) and 1-methyl-3H-imidazole-2-thione or methimazole (MMI)) were used, no inhibition of the deiodinase activity was observed.
The deiodination reactions were carried out in 100 mM phosphate buffer (pH 7.5) with 10 mM dithiothreitol (DTT) at 37° C. Diselenol (Compound A) was freshly prepared by reducing the corresponding diselenide, with NaBH4 prior to use. The reaction products were analyzed by reverse-phase HPLC (Lichrospher C18 column, 4.6 μm, 150 mm×5 mm) with gradient elution using acetonitrile/ammonium acetate (pH 4.0) as the mobile phase. The formation of rT3 was monitored at λ=275 nm and the amounts of deiodinated products formed in the reactions in the presence or absence of test compounds were calculated by comparing the peak areas.

[2] = tested on: OVCAR3 cells; assay: OVCAR3 cell viability by WST-1 assay; type: cell-based, Human; conditions: OVCAR3, 0.5 μM, 48 h
Description: (§1) Cell lines: Human ovarian adenocarcinoma cells employed in the study were OVCAR-3 (ATCC HTB-161), A2780 (Sigma Aldrich) and SKOV-3 (ATCC HTB-77). Human normal embryonic kidney cells, HEK 293 (ATCC CRL1573) were used. All cells were cultured in RPMI1640 supplemented with 10% heat-inactivated FBS and antibiotics. Before conducting an experiment, cells were cultured for 24 h in RPMI1640 supplemented with 1.5% heat-inactivated charcoal stripped FBS and antibiotics.
Viability: WST-1 (Roche; 10% final concentration) was incubated with cells at 37° C. for 2 h and read with a MicroELISA reader at 440 nm.
(§2) OVCAR3 cells were collected and seeded in 96 well plates (10,000/well). The six compounds were then dissolved in DMSO and added to a final 0.5 μM concentration for 48 h of incubation. After incubation the cells were imaged by light microscopy (FIG. 13B). […] These cells were then examined for cell viability by WST-1 assay (FIG. 13C).

[3] = Water solubility (qualitative comparison); type: physicochemical; conditions: compared with PBENZ (compound 4)
[4] = Serum and brain thyroid hormone levels after 3 weeks ICV administration by osmotic minipumps; type: in vivo, BALB/c mice; conditions: mice; for change in brain free T3 levels (in words): one sided non-paired t test; for Serum Free T3, Mean / Serum Free T4, Mean / Brain Free T3, Mean / Brain Free T4, Mean: ICV by osmotic minipump for 3 weeks, IOP 2 mg/kg, ITYR 5 mg/kg; for Serum Free T3, Mean: vehicle 14.45; for Serum Free T4, Mean: vehicle 36.05; for Brain Free T3, Mean: vehicle 72.74; for Brain Free T4, Mean: vehicle 250.54
Description: Deaths were related to the surgical procedure.
At the end of the tests, animals were anesthetized with veterinary Pental (13.333 mg/kg) and cardiac blood was drawn for peripheral T3 (triiodothyronine) and T4 (thyroxine) levels. Brains were harvested for evaluating brain T3, T4 levels. Hormone levels in the sera and brains were measured by SunLong Biotech Mouse Ultrasensitivity total and free T3 and T4 ELISA Kits, employing producing a standard curve followed by actual measurement, in which OD levels obtained by spectrophotometer were converted, using the standard curve, to pg/ml values.

[5] = Novelty suppressed feeding test (NSFT) after 3 weeks ICV administration; conditions: mice, ICV 3 weeks, compared to vehicle; ANCOVA with brain T3 as covariate
Description: The intra-cerebroventricular injection was performed via a cannula inserted as follows: first, for the chronic administration of compounds or vehicle, osmotic minipumps (Alzet model 1004 for up to 28 days administration) were employed. Empty minipumps were filled under sterile conditions with 0.1 ml of PBS or with PBS containing either one of the DIO3 inhibitors and then connected to brain infusion kits. The filled minipumps connected to the brain infusion kits were than primed in an incubator at 37° C. before being implanted into the animals. At the surgery itself, each mouse was anaesthetized by intraparenteral (i.p.) injection of anesthesia. The anesthesia solution was prepared as follows: for each 2 ml of solution, 900 μl ketamine plus 100 μl xylazine 2% was supplemented with 1000 μl of 0.9% NaCl saline solution. 70 μl of the anesthesia solution was administered i.p to a 20 gram (about 100 μl for 30 gram) weighing animal. […]
After the last treatment administration, all food was removed from the cage for 24 hours (water was available ad libitum). […] Time elapsing from the introduction of the animal into the arena until it commences eating (latency to feed), total distance move, velocity and time spent in the arena periphery (lateral 10 cm on each side) and center were recorded. […] The mean of the two ratings was calculated and used for the statistical analysis.

[6] = tested on: OVCAR3 cells; assay: OVCAR3 cell density and morphology by light microscopy; type: cell-based, Human; conditions: OVCAR3, 0.5 μM, 48 h
Description: as §1
Microscopy: The cells were visualized using a microscope equipped with a camera (model IX71; Olympus) with a 20_/0.50 objective lens and Cell^A (version 3.1) Olympus software imaging.
as §2

[7] = biological target: DIO2 (Homo sapiens, UniProt Q92813); conditions: cited from earlier work
Chain of DIO2 (Q92813 whole entry, species assumed): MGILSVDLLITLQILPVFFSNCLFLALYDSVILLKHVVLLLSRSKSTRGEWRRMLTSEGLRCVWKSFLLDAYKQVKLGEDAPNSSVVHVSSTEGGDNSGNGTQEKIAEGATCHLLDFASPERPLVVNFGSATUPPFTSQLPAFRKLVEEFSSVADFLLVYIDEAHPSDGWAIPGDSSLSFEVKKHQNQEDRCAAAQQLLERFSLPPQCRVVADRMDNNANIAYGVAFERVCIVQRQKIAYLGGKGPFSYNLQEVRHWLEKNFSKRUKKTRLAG

[8] = biological target: T1, DIO3 (Homo sapiens, UniProt P55073); conditions: cited from earlier work
T1 sequence (P55073 1-304): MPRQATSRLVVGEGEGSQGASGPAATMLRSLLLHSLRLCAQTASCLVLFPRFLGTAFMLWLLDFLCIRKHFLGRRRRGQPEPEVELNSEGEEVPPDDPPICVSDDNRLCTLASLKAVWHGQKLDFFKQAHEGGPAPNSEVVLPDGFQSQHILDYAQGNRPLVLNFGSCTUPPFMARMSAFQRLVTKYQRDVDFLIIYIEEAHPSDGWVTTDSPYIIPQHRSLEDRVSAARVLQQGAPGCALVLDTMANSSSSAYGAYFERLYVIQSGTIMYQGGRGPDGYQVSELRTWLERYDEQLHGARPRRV

[9] = biological target: T2, DIO1 (Homo sapiens, UniProt P49895); conditions: cited from earlier work
T2 sequence (P49895 1-249): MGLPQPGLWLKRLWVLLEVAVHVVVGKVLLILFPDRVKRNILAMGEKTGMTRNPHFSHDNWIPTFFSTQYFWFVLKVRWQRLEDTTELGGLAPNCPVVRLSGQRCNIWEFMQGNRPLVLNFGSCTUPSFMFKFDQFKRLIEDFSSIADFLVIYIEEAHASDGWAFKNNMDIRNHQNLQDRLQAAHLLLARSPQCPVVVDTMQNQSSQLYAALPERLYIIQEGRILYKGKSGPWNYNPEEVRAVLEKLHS

SMILES: O=C1C(Br)=C(Br)C(=O)N1Cc1ccccc1 [B, 2,3-dibromo-N-benzylmaleimide]
- inhibition of the deiodinase activity (deiodination of T4) of DIO3 mimic compound A [1]: inhibit

SMILES: O=C(O)C(Cc1ccc(O)cc1)N1C(=O)C(Br)=C(Br)C1=O (stereo not shown) [Compound 3]
- reaction with the DIO3 mimic [1]: react stoichiometrically
- inhibition of the deiodinase activity (deiodination of T4) of DIO3 mimic compound A [1]: Inhibition
- IC50 for inhibiting the DIO3 mimic [1]: micromolar range
- cell viability [2]: low reduction in viability
- solubility in water [3]: more soluble in water

SMILES: O=C(O)c1ccc(N2C(=O)C(Br)=C(Br)C2=O)cc1 [Compound 4]
- reaction with the DIO3 mimic [1]: react stoichiometrically
- IC50 for inhibiting the DIO3 mimic [1]: micromolar range
- cell viability [2]: No effect

SMILES: O=C(O)C(Cc1cc(I)c(O)c(I)c1)N1C(=O)C(Br)=C(Br)C1=O (stereo not shown) [Compound 5]
- change in brain free T3 levels (in words) ([4]; ICV 3 weeks, vs. vehicle): not significantly increased
- Serum Free T3, Mean [4]: 12.33 pg/mL
- Serum Free T4, Mean [4]: 37.00 ng/mL
- Brain Free T3, Mean [4]: 81.98 pg/mL
- Brain Free T4, Mean [4]: 262.86 ng/mL
- cell viability [2]: significant reduction in cell viability
- latency to feed in the novelty suppressed feeding test [5]: reduced latency to feed
- cell density and cell morphology [6]: marked reduction in cell density and deformed cell morphology

SMILES: CCC(Cc1c(I)cc(I)c(N2C(=O)C(Br)=C(Br)C2=O)c1I)C(=O)O (stereo not shown) [Compound 6]
- increase in brain free T3 levels ([4]; ICV 3 weeks, vs. vehicle): about 46%
- change in brain free T3 levels (in words) ([4]; ICV 3 weeks, vs. vehicle): significant increase
- Serum Free T3, Mean [4]: 12.23 pg/mL
- Serum Free T4, Mean [4]: 35.75 ng/mL
- Brain Free T3, Mean [4]: 84.30 pg/mL
- Brain Free T4, Mean [4]: 244.11 ng/mL
- cell viability [2]: low reduction in viability
- latency to feed in the novelty suppressed feeding test [5]: reduced latency to feed

SMILES: O=C1C(Br)=C(Br)C(=O)N1CCc1ccc(O)c(O)c1 [Compound 7]
- cell viability [2]: significant reduction in cell viability
- cell density and cell morphology [6]: marked reduction in cell density and deformed cell morphology

SMILES: O=C(O)CC(C(=O)O)N1C(=O)C(Br)=C(Br)C1=O (stereo not shown) [Compound 8]
- cell viability [2]: significant reduction in cell viability
- cell density and cell morphology [6]: marked reduction in cell density and deformed cell morphology

SMILES: CN1C(=O)C(Br)=C(Br)C1=O [Compound C, 2,3-dibromo-N-methylmaleimide]
- inhibition of the deiodinase activity (deiodination of T4) of DIO3 mimic compound A [1]: inhibit; also recorded: Inhibition

SMILES: O=C(O)CI [IAA, iodoacetic acid]
- inhibition of DIO2 [7]: cannot inhibit
- inhibition of DIO3 [8]: cannot inhibit
- inhibition of DIO1 [9]: inhibitor

SMILES: Cn1cc[nH]c1=S [MMI, 1-methyl-3H-imidazole-2-thione, reference compound]
- inhibition of the deiodinase activity (deiodination of T4) of DIO3 mimic compound A [1]: no inhibition

SMILES: Cc1cc(=O)[nH]c(=S)[nH]1 [MTU, 6-methyl-2-thiouracil]
- inhibition of DIO3 [8]: do not inhibit
- inhibition of the deiodinase activity (deiodination of T4) of DIO3 mimic compound A [1]: no inhibition
- inhibition of DIO1 [9]: inhibit

SMILES: CCCc1cc(=O)[nH]c(=S)[nH]1 [PTU, 6-n-propyl-2-thiouracil]
- inhibition of DIO3 [8]: do not inhibit
- inhibition of the deiodinase activity (deiodination of T4) of DIO3 mimic compound A [1]: no inhibition
- inhibition of DIO1 [9]: inhibit
